# According to ChEMBL document CHEMBL1201861, “Genomics of Drug Sensitity in Cancer screening data, Wellcome Trust Sanger Institute”:
# What was measured:
# Assay in all cases: cells
# T84 = type: functional, cell-based, Homo sapiens; conditions: Homo sapiens, T84;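 note: growth inhibition measured with a cell viability readout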
# Description: SANGER: Inhibition of human T84 cell growth in a cell viability assay.
# HO-1-N-1 = type: functional, cell-based, Homo sapiens; conditions: Homo sapiens, HO-1-N-1;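 note: growth inhibition of human HO-1-N-1 cells, read out with a cell viability assay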
# Description: SANGER: Inhibition of human HO-1-N-1 cell growth in a cell viability assay.
# MEG-01 = type: functional, cell-based; conditions: Homo sapiens;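 note: growth inhibition of MEG-01 cells, read out by a cell viability assay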
# Description: SANGER: Inhibition of human MEG-01 cell growth in a cell viability assay.
# A673 = type: functional, cell-based, Homo sapiens; conditions: Homo sapiens, A673;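 note: growth inhibition of human A673 cells, read out through a cell viability assay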
# Description: SANGER: Inhibition of human A673 cell growth in a cell viability assay.
# PSN1 = type: functional, cell-based, Homo sapiens; conditions: Homo sapiens, PSN1;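 note: suppression of growth of human PSN1 cells, read out by a cell viability assay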
# Description: SANGER: Inhibition of human PSN1 cell growth in a cell viability assay.
# KM12 = type: functional, cell-based, Homo sapiens; conditions: Homo sapiens, KM12;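 note: KM12 cell growth inhibition, read out with a cell viability assay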
# Description: SANGER: Inhibition of human KM12 cell growth in a cell viability assay.
# MCF7 = type: functional, cell-based, Homo sapiens; conditions: Homo sapiens, MCF7;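 note: growth inhibition of human MCF7 cells, read out with a cell viability assay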
# Description: SANGER: Inhibition of human MCF7 cell growth in a cell viability assay.
# KS-1 = type: functional, cell-based, Homo sapiens; conditions: Homo sapiens, KS-1;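 note: growth inhibition of KS-1 cells, read out with a cell viability assay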
# Description: SANGER: Inhibition of human KS-1 cell growth in a cell viability assay.
# BT-20 = type: functional, cell-based, Homo sapiens; conditions: Homo sapiens, BT-20;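 note: cell viability assay measuring suppression of growth in human BT-20 cells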
# Description: SANGER: Inhibition of human BT-20 cell growth in a cell viability assay.
# NY = type: functional, cell-based, Homo sapiens; conditions: Homo sapiens, NY
# Description: SANGER: Inhibition of human NY cell growth in a cell viability assay.
# HuCCT-1 = type: functional, cell-based, Homo sapiens, HuCCT1; conditions: Homo sapiens, HuCCT-1;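 note: growth inhibition of HuCCT-1 cells, read out by a cell viability assay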
# Description: SANGER: Inhibition of human HuCCT1 cell growth in a cell viability assay.
# EW-18 = type: functional, cell-based; conditions: Homo sapiens;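 note: growth inhibition of EW-18 cells, read out by a cell viability assay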
# Description: SANGER: Inhibition of human EW-18 cell growth in a cell viability assay.
# DJM-1 = type: functional, cell-based, Homo sapiens; conditions: Homo sapiens, DJM-1;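 note: growth inhibition of human DJM-1 cells, read out by a cell viability assay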
# Description: SANGER: Inhibition of human DJM-1 cell growth in a cell viability assay.
# LB373-MEL-D = type: functional, cell-based, Homo sapiens; conditions: Homo sapiens, LB373-MEL-D;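 note: growth inhibition of the cell line, read out in a cell viability assay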
# Description: SANGER: Inhibition of human LB373-MEL-D cell growth in a cell viability assay.
# DK-MG = type: functional, cell-based, Homo sapiens; conditions: Homo sapiens, DK-MG;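 note: growth inhibition of DK-MG cells, read out with a cell viability assay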
# Description: SANGER: Inhibition of human DK-MG cell growth in a cell viability assay.
# KYSE-520 cell line = type: functional, cell-based, Homo sapiens; conditions: Homo sapiens, KYSE-520;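 note: growth inhibition of human KYSE-520 cells, read out with a viability assay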
# Description: SANGER: Inhibition of human KYSE-520 cell growth in a cell viability assay.
# YAPC = type: functional, cell-based, Homo sapiens; conditions: Homo sapiens, YAPC;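 note: growth inhibition of YAPC cells, measured with a cell viability assay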
# Description: SANGER: Inhibition of human YAPC cell growth in a cell viability assay.
# D283 Med = type: functional, cell-based, Homo sapiens; conditions: Homo sapiens, D283 Med
# Description: SANGER: Inhibition of human D-283MED cell growth in a cell viability assay.
# MKN-45 = type: functional, cell-based, Homo sapiens; conditions: Homo sapiens, MKN-45;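 note: growth inhibition of human MKN-45 cells, measured with a cell viability assay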
# 786-0 = type: functional, cell-based, Homo sapiens; conditions: Homo sapiens
# Description: SANGER: Inhibition of human 786-0 cell growth in a cell viability assay.
# NCI-H747 = type: functional, cell-based; conditions: Homo sapiens;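 note: growth inhibition of human NCI-H747 cells, read out by a cell viability assay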
# NCI-H2342 = type: functional, cell-based; conditions: Homo sapiens;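 note: growth inhibition of the cancer cell line, determined with a cell viability assay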
# Description: SANGER: Inhibition of human NCI-H2342 cell growth in a cell viability assay.
# LCLC-97TM1 = type: functional, cell-based, Homo sapiens; conditions: Homo sapiens, LCLC-97TM1;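 note: cell viability assay measuring growth inhibition of human LCLC-97TM1 cells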
# Description: SANGER: Inhibition of human LCLC-97TM1 cell growth in a cell viability assay.
# OE19 = type: functional, cell-based, Homo sapiens; conditions: Homo sapiens, OE19;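 note: growth inhibition of OE19 cells, measured through a cell viability read-out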
# Description: SANGER: Inhibition of human OE19 cell growth in a cell viability assay.
# J-RT3-T3-5 = type: functional, cell-based; conditions: Homo sapiens;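 note: cell viability assay measuring growth inhibition of human J-RT3-T3-5 cells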
# Description: SANGER: Inhibition of human J-RT3-T3-5 cell growth in a cell viability assay.
# SW982 = type: functional, cell-based; conditions: Homo sapiens;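 note: growth inhibition of SW982 cells, read out with a cell viability assay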
# Description: SANGER: Inhibition of human SW982 cell growth in a cell viability assay.
# SW780 = type: functional, cell-based, Homo sapiens; conditions: Homo sapiens, SW780;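 note: growth inhibition of the cells, read out with a cell viability assay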
# Description: SANGER: Inhibition of human SW780 cell growth in a cell viability assay.
# ES8 = type: functional, cell-based, Homo sapiens; conditions: Homo sapiens, ES8;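 note: growth inhibition of human ES8 cells, read out with a cell viability assay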
# Description: SANGER: Inhibition of human ES8 cell growth in a cell viability assay.
# LNCaP-Clone-FGC = type: functional, cell-based, Homo sapiens; conditions: Homo sapiens, LNCaP-Clone-FGC
# Description: SANGER: Inhibition of human LNCaP-Clone-FGC cell growth in a cell viability assay.
# KP-4 = type: functional, cell-based, Homo sapiens; conditions: Homo sapiens, KP-4; read-out: IC50;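 note: human KP-4 cells, with growth inhibition read out through a cell viability assay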
# Description: SANGER: Inhibition of human KP-4 cell growth in a cell viability assay.
# COLO-800 = type: functional, cell-based, Homo sapiens; conditions: Homo sapiens, COLO-800;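 note: growth inhibition of COLO-800 cells, read out with a cell viability assay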
# Description: SANGER: Inhibition of human COLO-800 cell growth in a cell viability assay.
# NEC8 = type: functional, cell-based, Homo sapiens; conditions: Homo sapiens, NEC8;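 note: growth inhibition of human NEC8 cells, read out by a cell viability assay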
# Description: SANGER: Inhibition of human NEC8 cell growth in a cell viability assay.
# EFM-19 = type: functional, cell-based, Homo sapiens; conditions: Homo sapiens, EFM-19;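 note: growth inhibition of human EFM-19 cells, measured in a cell viability assay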
# Description: SANGER: Inhibition of human EFM-19 cell growth in a cell viability assay.
# MV4-11 = type: functional, cell-based, MV-4-11; conditions: Homo sapiens;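 note: cell viability readout measuring growth inhibition of human MV-4-11 cells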
# Description: SANGER: Inhibition of human MV-4-11 cell growth in a cell viability assay.
# TE-12 = type: functional, cell-based; conditions: Homo sapiens;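 note: growth inhibition of TE-12 cells, read out by a cell viability assay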
# Description: SANGER: Inhibition of human TE-12 cell growth in a cell viability assay.
# BB49-HNC = type: functional, cell-based, Homo sapiens; conditions: Homo sapiens, BB49-HNC;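 note: cell viability assay read-out, reported as inhibition of BB49-HNC cell growth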
# Description: SANGER: Inhibition of human BB49-HNC cell growth in a cell viability assay.
# Daoy = type: functional, cell-based, Homo sapiens; conditions: Homo sapiens, Daoy;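 note: daoy cell growth inhibition, read out as cell viability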
# Description: SANGER: Inhibition of human Daoy cell growth in a cell viability assay.
# PANC-03-27 = type: functional, cell-based, Homo sapiens; conditions: Homo sapiens, PANC-03-27
# Description: SANGER: Inhibition of human PANC-03-27 cell growth in a cell viability assay.
# HSC-3 = type: functional, cell-based, Homo sapiens; conditions: Homo sapiens, HSC-3
# Description: SANGER: Inhibition of human HSC-3 cell growth in a cell viability assay.
# U-266 = type: functional, cell-based; conditions: Homo sapiens
# Description: SANGER: Inhibition of human U-266 cell growth in a cell viability assay.
# BB30-HNC = type: functional, cell-based, Homo sapiens; conditions: Homo sapiens, BB30-HNC;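 note: growth inhibition of the cultured cell line, read out by a cell viability assay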
# Description: SANGER: Inhibition of human BB30-HNC cell growth in a cell viability assay.
# MIA PaCa-2 = type: functional, cell-based, Homo sapiens; conditions: Homo sapiens, MIA PaCa-2;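 note: growth inhibition of MIA PaCa-2 cells, read out with a cell viability assay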
# Description: SANGER: Inhibition of human MIA-PaCa-2 cell growth in a cell viability assay.
# 697 = type: functional, cell-based; conditions: Homo sapiens
# Description: SANGER: Inhibition of human 697 cell growth in a cell viability assay.
# SCC-25 = type: functional, cell-based, Homo sapiens; conditions: Homo sapiens, SCC-25;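 note: growth inhibition of SCC-25 cells, measured with a cell viability assay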
# SK-N-DZ = type: functional, cell-based, Homo sapiens; conditions: Homo sapiens, SK-N-DZ;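 note: growth inhibition of the cancer cell line, read out through a viability assay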
# Description: SANGER: Inhibition of human SK-N-DZ cell growth in a cell viability assay.
# UMC-11 = type: functional, cell-based, Homo sapiens; conditions: Homo sapiens, UMC-11;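 note: growth inhibition of UMC-11 cells, read out with a cell viability assay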
# Description: SANGER: Inhibition of human UMC-11 cell growth in a cell viability assay.
# SW1783 = type: functional, cell-based; conditions: Homo sapiens;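 note: cell growth inhibition measured with a viability assay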
# Description: SANGER: Inhibition of human SW1783 cell growth in a cell viability assay.
# EC-GI-10 = type: functional, cell-based, Homo sapiens; conditions: Homo sapiens, EC-GI-10
# Description: SANGER: Inhibition of human EC-GI-10 cell growth in a cell viability assay.
# MKN-28 = type: functional, cell-based, Homo sapiens; conditions: Homo sapiens, MKN-28;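 note: cell viability assay read-out, IC50 reflects suppression of growth of human MKN-28 cells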
# NCI-H727 = type: functional, cell-based, Homo sapiens; conditions: Homo sapiens, NCI-H727;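 note: growth inhibition of human NCI-H727 cells, read out with a cell viability assay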
# Description: SANGER: Inhibition of human NCI-H727 cell growth in a cell viability assay.
structure (smiles),measurement,setting,value
Cc1ccc(Nc2nccc(N(C)c3ccc4c(C)n(C)nc4c3)n2)cc1S(N)(=O)=O [PAZOPANIB],IC50,T84,> 8 µM
same,IC50,HO-1-N-1,> 8 µM
same,IC50,MEG-01,> 8 µM
same,IC50,A673,> 8 µM
same,IC50,PSN1,> 8 µM
same,IC50,KM12,> 8 µM
same,IC50,MCF7,> 8 µM
same,IC50,KS-1,> 8 µM
same,IC50,BT-20,> 8 µM
same,IC50,NY,1.85 µM
same,IC50,HuCCT-1,> 8 µM
same,IC50,EW-18,> 8 µM
same,IC50,DJM-1,> 8 µM
same,IC50,LB373-MEL-D,> 8 µM
same,IC50,DK-MG,5.72 µM
same,IC50,KYSE-520 cell line,> 8 µM
same,IC50,YAPC,> 8 µM
same,IC50,D283 Med,> 8 µM
same,IC50,MKN-45,> 8 µM
same,IC50,786-0,> 8 µM
same,IC50,NCI-H747,> 8 µM
same,IC50,NCI-H2342,3.13 µM
same,IC50,LCLC-97TM1,> 8 µM
same,IC50,OE19,> 8 µM
same,IC50,J-RT3-T3-5,> 8 µM
same,IC50,SW982,> 8 µM
same,IC50,SW780,> 8 µM
same,IC50,ES8,> 8 µM
same,IC50,LNCaP-Clone-FGC,> 8 µM
same,IC50,KP-4,> 8 µM
same,IC50,COLO-800,> 8 µM
same,IC50,NEC8,> 8 µM
same,IC50,EFM-19,> 8 µM
same,IC50,MV4-11,1.35 µM
same,IC50,TE-12,> 8 µM
same,IC50,BB49-HNC,> 8 µM
same,IC50,Daoy,4.78 µM
same,IC50,PANC-03-27,> 8 µM
same,IC50,HSC-3,> 8 µM
same,IC50,U-266,> 8 µM
same,IC50,BB30-HNC,> 8 µM
same,IC50,MIA PaCa-2,5.6 µM
same,IC50,697,> 8 µM
same,IC50,SCC-25,> 8 µM
same,IC50,SK-N-DZ,2.02 µM
same,IC50,UMC-11,> 8 µM
same,IC50,SW1783,> 8 µM
same,IC50,EC-GI-10,> 8 µM
same,IC50,MKN-28,> 8 µM
same,IC50,NCI-H727,5.41 µM
C[C@]1(O)C[C@@H](c2nc(-c3ccc4ccc(-c5ccccc5)nc4c3)c3c(N)nccn32)C1 [LINSITINIB],IC50,T84,1.21 µM
same,IC50,HO-1-N-1,> 2.56 µM
same,IC50,MEG-01,> 2.56 µM
same,IC50,A673,> 2.56 µM
same,IC50,PSN1,> 2.56 µM
same,IC50,KM12,> 2.56 µM
same,IC50,MCF7,> 2.56 µM
same,IC50,KS-1,0.0384 µM
same,IC50,BT-20,> 2.56 µM
same,IC50,NY,> 2.56 µM
same,IC50,HuCCT-1,> 2.56 µM
same,IC50,EW-18,0.27 µM
same,IC50,DJM-1,> 2.56 µM
same,IC50,LB373-MEL-D,> 2.56 µM
same,IC50,DK-MG,> 2.56 µM
same,IC50,KYSE-520 cell line,> 2.56 µM
same,IC50,YAPC,> 2.56 µM
same,IC50,D283 Med,> 2.56 µM
same,IC50,MKN-45,> 2.56 µM
same,IC50,786-0,> 2.56 µM
same,IC50,NCI-H747,> 2.56 µM
same,IC50,NCI-H2342,> 2.56 µM
same,IC50,LCLC-97TM1,0.21 µM
same,IC50,OE19,> 2.56 µM
same,IC50,J-RT3-T3-5,> 2.56 µM
same,IC50,SW982,> 2.56 µM
same,IC50,SW780,> 2.56 µM
same,IC50,ES8,> 2.56 µM
same,IC50,LNCaP-Clone-FGC,> 2.56 µM
same,IC50,KP-4,> 2.56 µM
same,IC50,COLO-800,> 2.56 µM
same,IC50,NEC8,> 2.56 µM
same,IC50,EFM-19,> 2.56 µM
same,IC50,MV4-11,> 2.56 µM
same,IC50,TE-12,0.765 µM
same,IC50,BB49-HNC,> 2.56 µM
same,IC50,Daoy,> 2.56 µM
same,IC50,PANC-03-27,> 2.56 µM
same,IC50,HSC-3,> 2.56 µM
same,IC50,U-266,> 2.56 µM
same,IC50,BB30-HNC,> 2.56 µM
same,IC50,MIA PaCa-2,> 2.56 µM
same,IC50,697,> 2.56 µM
same,IC50,SCC-25,> 2.56 µM
same,IC50,SK-N-DZ,0.237 µM
same,IC50,UMC-11,> 2.56 µM
same,IC50,SW1783,> 2.56 µM
same,IC50,EC-GI-10,> 2.56 µM
same,IC50,MKN-28,> 2.56 µM
same,IC50,NCI-H727,0.198 µM
C=CCc1cccc(/C=N/NC(=O)CN2CCN(Cc3ccccc3)CC2)c1O [PAC-1],IC50,T84,1.03 µM
same,IC50,HO-1-N-1,> 2.56 µM
same,IC50,MEG-01,> 2.56 µM
same,IC50,A673,> 2.56 µM
same,IC50,PSN1,> 2.56 µM
same,IC50,KM12,> 2.56 µM
same,IC50,MCF7,> 2.56 µM
same,IC50,KS-1,> 2.56 µM
same,IC50,BT-20,> 2.56 µM
same,IC50,NY,> 2.56 µM
same,IC50,HuCCT-1,1.46 µM
same,IC50,EW-18,> 2.56 µM
same,IC50,DJM-1,> 2.56 µM
same,IC50,LB373-MEL-D,> 2.56 µM
same,IC50,DK-MG,> 2.56 µM
same,IC50,KYSE-520 cell line,> 2.56 µM
same,IC50,YAPC,> 2.56 µM
same,IC50,D283 Med,> 2.56 µM
same,IC50,MKN-45,> 2.56 µM
same,IC50,786-0,0.739 µM
same,IC50,NCI-H747,> 2.56 µM
same,IC50,NCI-H2342,> 2.56 µM
same,IC50,LCLC-97TM1,1.42 µM
same,IC50,OE19,> 2.56 µM
same,IC50,J-RT3-T3-5,1.2 µM
same,IC50,SW982,> 2.56 µM
same,IC50,SW780,> 2.56 µM
same,IC50,ES8,> 2.56 µM
same,IC50,LNCaP-Clone-FGC,> 2.56 µM
same,IC50,KP-4,> 2.56 µM
same,IC50,COLO-800,> 2.56 µM
same,IC50,NEC8,> 2.56 µM
same,IC50,EFM-19,1.95 µM
same,IC50,MV4-11,> 2.56 µM
same,IC50,TE-12,> 2.56 µM
same,IC50,BB49-HNC,> 2.56 µM
same,IC50,Daoy,2.19 µM
same,IC50,PANC-03-27,0.76 µM
same,IC50,HSC-3,> 2.56 µM
same,IC50,U-266,> 2.56 µM
same,IC50,BB30-HNC,> 2.56 µM
same,IC50,MIA PaCa-2,> 2.56 µM
same,IC50,697,0.91 µM
same,IC50,SCC-25,> 2.56 µM
same,IC50,SK-N-DZ,> 2.56 µM
same,IC50,UMC-11,> 2.56 µM
same,IC50,SW1783,> 2.56 µM
same,IC50,EC-GI-10,> 2.56 µM
same,IC50,MKN-28,> 2.56 µM
same,IC50,NCI-H727,2 µM
